Structures can show the parent of a compound that is named as a salt.

The first test has as its system Acinetobacter baumannii ATCC 17978. In words: Antimicrobial susceptibility testing: 90% growth inhibitory concentration (IC90) determination. The format is cell-based. The note with it: 90% growth inhibitory concentration; Acinetobacter baumannii ATCC17978; Iso-Sensitest broth, OD 600 nm over 16h; read-out: ATCC17978 IC90. The method, boiled down:
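Growth of the Acinetobacter baumannii strain was followed by optical density at 600 nm every 20 minutes for 16h at 35±2° C. Inoculum was ~5×10^(5) CFU/ml in Iso-Sensitest medium, with twofold compound dilutions (e.g. 50 to 0.097 μM final). The 90% inhibitory concentration was derived in log-phase growth.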
Broadly, the IC90 is the point of the concentration-response curve where the effect stands at 90%. On to `COc1ccc(-c2cnc3c(Nc4ccc(C(=O)N(C)CCN5CCNCC5)c(Cl)c4)nccn23)cc1F` [Example 90, 2-chloro-4-((3-(3-fluoro-4-methoxyphenyl)imidazo [1,2-a]pyrazin-8-yl)amino)-N-methyl-N-(2-(piperazin-1-yl)ethyl)benzamide hydrochloride], for which the IC90 came out at 230 nM. Still for that read-out and setting: in the case of `COc1ccc(-c2cnc3c(Nc4ccc(C(=O)NCC5CCS(=O)(=O)CC5)c(Cl)c4)nccn23)c(F)c1F` [Example 106, 2-chloro-4-[[3-(2,3-difluoro-4-methoxy-phenyl)imidazo[1,2-a]pyrazin-8-yl]amino]-N-[(1,1-dioxothian-4-yl)methyl]benzamide; 2,2,2-trifluoroacetic acid] it was 140 nM.

Staying with this test, now noted: Acinetobacter baumannii, ATCC17978, 16 h, 90% growth inhibitory concentration; Acinetobacter baumannii ATCC17978; Iso-Sensitest broth, OD 600 nm over 16h; read-out: ATCC17978 IC90.
As to `CCc1cc(Nc2nccn3c(-c4ccc(OC)c(F)c4F)cnc23)ccc1C(=O)NCC1CCN(CC(=O)NCC2CCNC2)CC1` (stereo not drawn) [Example 551, 4-((3-(2,3-difluoro-4-methoxyphenyl)imidazo[1,2-a]pyrazin-8-yl)amino)-2-ethyl-N-((1-(2-oxo-2-((pyrrolidin-3-ylmethyl)amino)ethyl)piperi-din-4-yl)methyl)benzamide bis(2,2,2-trifluoroacetate)], the IC90 came to 77 nM.

For the compound `CCc1cc(Nc2nccn3c(-c4ccc(Oc5ccncn5)c(F)c4F)cnc23)ccc1C(=O)NCCCNC(=O)NCCNCCCN` [Example 565, N-[3-[2-(3-aminopropylamino)ethylcar-bamoylamino]propyl]-4-[[3-(2,3-difluoro-4-pyrimidin-4-yloxy-phenyl)imidazo[1,2-a]pyrazin-8-yl]amino]-2-ethyl-benzamide; formic acid], the IC90 was 300 nM. The same measure, in the same setting: to `COc1ccc(-c2cnc3c(Nc4ccc5c(c4)CCN(CCCO)C5=O)nccn23)c(F)c1F` [Example 327, 6-[[3-(2,3-difluoro-4-methoxyphenyl)imidazo[1,2-a]pyrazin-8-yl]amino]-2-(3-hydroxypropyl)-3,4-dihydroisoquinolin-1-one] belongs 290 nM; to `CCc1cc(Nc2nccn3c(-c4ccc(OC)c(F)c4F)cnc23)ccc1C(=O)NCCCCC(=O)N1CCN[C@H](CO)C1` [Example 163, 4-[[3-(2,3-difluoro-4-methoxy-phenyl)imidazo[1,2-a]pyrazin-8-yl]amino]-2-ethyl-N-[5-[(3S)-3-(hydroxymethyl)piperazin-1-yl]-5-oxo-pentyl]benzamide], 80 nM. Still for that read-out and setting: to `Cc1cc(Nc2nccn3c(-c4ccc(OC(F)F)cc4)cnc23)ccc1C(=O)NCCN1CCNCC1` [Example 46] belongs 490 nM; to `CCc1cc(Nc2nccn3c(-c4ccc(OC)c(F)c4F)cnc23)ccc1C(=O)NCCNC(=O)[C@@H](N)CCCN` [Example 397, N-[2-[[(2S)-2,5-diaminopentanoyl]amino]eth-yl]-4-[[3-(2,3-difluoro-4-methoxy-phenyl)imidazo[1,2-a]pyrazin-8-yl]amino]-2-ethyl-benzamide; formic acid], 410 nM. With `CCc1cc(Nc2nccn3c(-c4ccc(OC)c(F)c4F)cnc23)ccc1C(=O)NCC1CCN(C(C)(C)C(=O)O)CC1` [Example 562, 2-(4-((4-((3-(2,3-difluoro-4-methoxyphenyl)imidazo[1,2-a]pyrazin-8-yl)amino)-2-ethylbenzamido)methyl)piper-idin-1-yl)-2-methylpropanoic acid compound with formic acid], the IC90 came to 320 nM. Consider `Cc1cc(Nc2nccn3c(-c4ccc(OC(F)F)cc4)cnc23)ccc1C(=O)N(C)CCC1CCN(CCC(=O)O)CC1` [Example 150, 3-(4-(2-(4-((3-(4-(difluoromethoxy)phenyl)imidazo[1,2-a]pyrazin-8-yl)amino)-N,2-dimethylbenzamido)ethyl)piperidin-1-yl)propanoic acid], for which the concentration for an effect of 90% (IC90) turned out to be 650 nM. Still for that read-out and setting: in the case of `CNC(=O)c1ccc(Nc2nccn3c(-c4ccc(OC(F)F)cc4)cnc23)cc1C` [Example 26] it was 170 nM. Same read-out and setting: in the case of `CCc1cc(Nc2nccn3c(-c4ccc(Cl)c(F)c4F)cnc23)ccc1C(=O)NCC1CCNC1` (stereo not drawn) [Example 277, 4-[[3-(4-chloro-2,3-difluorophenyl)imidazo[1,2-a]pyrazin-8-yl]amino]-2-ethyl-N-(pyrrolidin-3-ylmethyl)benzamide;hydrochlo-ride] it was 700 nM; in that of `Cc1cc(Nc2nccn3c(-c4ccc(OC(F)F)cc4)cnc23)ccc1C(=O)N(C)CC(=O)N(C)CC(=O)N1CCN(C)CC1` [Example 171, 4-[[3-[4-(difluoromethoxy)phenyl]im-idazo[1,2-a]pyrazin-8-yl]amino]-N,2-dimethyl-N-[2-[methyl-[2-(4-methylpiperazin-1-yl)-2-oxoethyl]amino]-2-oxoethyl]benzamide], 3600 nM; in that of `CCc1cc(Nc2nccn3c(-c4ccc(Oc5ccncn5)c(F)c4F)cnc23)ccc1C(=O)NCCNC(=O)[C@H](N)CCNC(=N)N` [Example 441, N-[2-[[(2R)-2-amino-4-guanidino-butanoyl]amino]ethyl]-4-[[3-(2,3-difluoro-4-pyrimidin-4-yloxy-phenyl)imidazo[1,2-a]pyrazin-8-yl]amino]-2-ethyl-benzamide; formic acid], 460 nM. With `COc1ccc(-c2cnc3c(Nc4ccc(C(=O)N[C@@H](C)CNC(C)=N)c(Cl)c4)nccn23)c(F)c1F` [Example 487, 2-chloro-4-[[3-(2,3-difluoro-4-methoxyphenyl)imidazo[1,2-a]pyrazin-8-yl]amino]-#N!- [(2#S!)-1-(ethanimidoylamino)propan-2-yl]benzamide;formic acid], the IC90 was 120 nM. Still for that read-out and setting: in the case of `COc1ccc(-c2cnc3c(Nc4ccc(C(=O)NCCCCN)c(C)c4)nccn23)cc1` [Example 194, N-(4-aminobutyl)-4-[[3-(4-methoxyphenyl)imidazo[1,2-a]pyrazin-8-yl]amino]-2-methylbenzamide;hydrochlo-ride] it was 360 nM. On the same count and under the same terms, in the case of `COc1ccc(-c2cnc3c(Nc4ccc5c(c4)CCCNC5=O)nccn23)cc1F` [Example 390, 7-[[3-(3-fluoro-4-methoxy-phenyl)imidazo[1,2-a]pyrazin-8-yl]amino]-2,3,4,5-tetrahydro-2-benzazepin-1-one hydrochloride] it was 220 nM; in that of `COc1ccc(-c2cnc3c(Nc4ccc(C(=O)NCC(=O)N5CCC(O)CC5)c(C)c4)nccn23)cc1` [Example 20, N-(2-(4-hydroxypiperidin-1-yl)-2-oxoethyl)-4-((3-(4-methoxyphenyl)imidazo [1,2-a]pyrazin-8-yl)amino)-2-methylbenzamide], 650 nM; in that of `CCc1cc(Nc2nccn3c(-c4ccc(Oc5ccc(OC)cn5)c(F)c4F)cnc23)ccc1C(=O)NCCNC(=O)[C@H](N)CCCNC(=N)N` [Example 447, N-[2-[[(2R)-2-amino-5-guanidino-pentanoyl]amino]ethyl]-4-[[3-[2,3-difluoro-4-[(5-methoxy-2-pyridyl)oxy]phenyl]imidazo [1,2-a]pyrazin-8-yl]amino]-2-ethyl-benzamide; formic acid], 630 nM.

On to `CCc1cc(Nc2nccn3c(-c4ccc(OC(F)F)c(F)c4F)cnc23)ccc1C(=O)N[C@@H](C)CNC(=O)C1CCNCC1` (racemic) [Example 552, rac-(R)-N-(2-(4-((3-(4-(difluoromethoxy)-2,3-difluorophenyl)imidazo[1,2-a]pyrazin-8-yl)amino)-2-ethylbenzamido)propyl)piper-idine-4-carboxamide formate], for which the IC90 amounted to 210 nM. Consider `Cc1cc(Nc2nccn3c(-c4ccc(OC(F)F)cc4)cnc23)ccc1C(=O)NCCC1CCNCC1` [Example 196, 4-[[3-[4-(difluoromethoxy)phenyl]im-idazo[1,2-a]pyrazin-8-yl]amino]-2-methyl-N-(2-piperidin-4-ylethyl)benzamide;hydrochlo-ride], for which the IC90 came out at 380 nM. Same read-out and setting: to `COc1ccc(-c2cnc3c(Nc4ccc(C(=O)NCCN5CCNCC5=O)c(C)c4)nccn23)cc1F` [Example 248, 4-[[3-(3-fluoro-4-methoxyphenyl)imidazo[1,2-a]pyrazin-8-yl]amino]-2-methyl-N-[2-(2-oxopiperazin-1-yl)ethyl]benzamide;hydrochlo-ride] belongs 2400 nM; to `CCc1cc(Nc2nccn3c(-c4ccc(Oc5nccc(OC)n5)c(F)c4F)cnc23)ccc1C(=O)NCCN` [Example 466, N-(2-aminoethyl)-4-((3-(2,3-difluoro-4-((4-methoxypyrimidin-2-yl)oxy)phenyl)imidazo[1,2-a]pyrazin-8-yl)amino)-2-ethylbenzamide], 560 nM. Take `CCc1cc(Nc2nccn3c(-c4ccc(Oc5ccncn5)c(F)c4F)cnc23)ccc1C(=O)NCCNC(=O)CCN` [Example 432, N-[2-(3-aminopropanoylamino)ethyl]-4-[[3-(2,3-difluoro-4-pyrimidin-4-yloxy-phenyl)imidazo[1,2-a]pyrazin-8-yl]amino]-2-ethyl-benzamide; formic acid]: the IC90 is 500 nM. Still for that read-out and setting: to `CCc1cc(Nc2nccn3c(-c4ccc(OC)c(F)c4F)cnc23)ccc1C(=O)NCC1COC1` [Example 291, 4-[[3-(2,3-difluoro-4-methoxyphenyl)imidazo[1,2-a]pyrazin-8-yl]amino]-2-ethyl-N-(oxetan-3-ylmethyl)benzamide] belongs 90 nM; to `COc1ccc(-c2cnc3c(Nc4ccc(C(=O)NCCCC[C@H](N)C(=O)O)c(C)c4)nccn23)c(F)c1F` [Example 349, (2S)-2-amino-6-[[4-[[3-(2,3-difluoro-4-methoxyphenyl)imidazo[1,2-a]pyrazin-8-yl]amino]-2-methylbenzoyl]amino]hexa-noic acid;2,2,2-trifluoroacetic acid], 1100 nM; to `CCc1cc(Nc2nccn3c(-c4ccc(OC)c(F)c4F)cnc23)ccc1C(=O)NCC1CCN(C(=N)N)CC1` [Example 298, N-[(1-carbamimidoylpiperidin-4-yl)methyl]-4-[[3-(2,3-difluoro-4-methoxyphenyl)imidazo[1,2-a]pyrazin-8-yl]amino]-2-ethylbenzamide], 170 nM.

(Values after US20230012368A1 (Hoffmann-La Roche Inc., priority 2018, published 2023).)
